# Key:
# CK1δ = CK1δ (Homo sapiens (Human), UniProt P48730); assay: CK1δ kinase assay (Caliper LABCHIP electrophoretic separation of fluoresceinated peptide substrate and product); format: biochemical; conditions: 200 pM enzyme, 50 μM ATP, 22 hours at room temperature
# Protocol: (§1) CK1ε and CK1δ Kinase Assays
# (§2) The kinase assay was performed in V-bottom 384-well plates. […] The reaction was incubated at room temperature for 22 hours and terminated by adding 45 μl of 35 mM EDTA to each sample. The reaction mixture was analyzed on the Caliper LABCHIP®3000 (Caliper, Hopkinton, Mass.) by electrophoretic separation of the unphosphorylated substrate and phosphorylated product. […] Compounds were dissolved at 10 mM in dimethylsulfoxide (DMSO) and evaluated at eleven concentrations. IC50 values were derived by non-linear regression analysis.
# CK1ε = CK1ε (Homo sapiens (Human), UniProt P49674); assay: CK1ε kinase assay (Caliper LABCHIP electrophoretic separation of fluoresceinated peptide substrate and product); format: biochemical; conditions: 200 pM enzyme, 50 μM ATP, 22 hours at room temperature
# Protocol: as §1, §2
# Chain of CK1δ (P48730 whole entry): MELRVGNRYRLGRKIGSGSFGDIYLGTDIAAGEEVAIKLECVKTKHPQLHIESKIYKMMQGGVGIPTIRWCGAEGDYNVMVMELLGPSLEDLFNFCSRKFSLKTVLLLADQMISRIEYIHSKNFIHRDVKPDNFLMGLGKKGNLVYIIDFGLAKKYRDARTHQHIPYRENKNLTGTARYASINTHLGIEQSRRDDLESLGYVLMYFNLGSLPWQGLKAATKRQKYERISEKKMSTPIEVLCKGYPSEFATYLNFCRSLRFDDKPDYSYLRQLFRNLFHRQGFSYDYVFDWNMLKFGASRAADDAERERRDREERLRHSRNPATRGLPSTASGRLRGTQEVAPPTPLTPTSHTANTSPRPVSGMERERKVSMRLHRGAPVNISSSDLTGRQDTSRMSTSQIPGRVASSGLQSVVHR
# Chain of CK1ε (P49674 whole entry): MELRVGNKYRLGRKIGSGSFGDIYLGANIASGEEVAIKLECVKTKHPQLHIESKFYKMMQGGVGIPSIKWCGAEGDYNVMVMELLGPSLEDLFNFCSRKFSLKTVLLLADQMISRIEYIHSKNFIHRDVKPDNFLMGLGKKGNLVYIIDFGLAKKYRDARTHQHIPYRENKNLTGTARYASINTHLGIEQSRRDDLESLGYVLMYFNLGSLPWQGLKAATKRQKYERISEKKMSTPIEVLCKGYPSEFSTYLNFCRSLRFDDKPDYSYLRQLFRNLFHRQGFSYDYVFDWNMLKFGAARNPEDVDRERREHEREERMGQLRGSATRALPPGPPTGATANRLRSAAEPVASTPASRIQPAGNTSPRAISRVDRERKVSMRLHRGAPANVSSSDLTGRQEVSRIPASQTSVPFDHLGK
SMILES,IC50 (CK1δ) [nM],IC50 (CK1ε) [nM]
"O=C(Nc1cn2nc(-c3c(-c4ccc(F)cc4)ncn3C3CCNCC3)ccc2n1)c1ccncc1 [Compound 1, N-(6-(4-(4-fluorophenyl)-1-(piperidin-4-yl)-1H-imidazol-5-yl)imidazo[1,2-b]pyridazin-2-yl)isonicotinamide]",0.064,–
"O=C(Nc1cn2nc(-c3c(-c4ccc(F)cc4)ncn3C3CCN(C[C@@H](O)C(F)(F)F)CC3)ccc2n1)c1ccncc1 [Compound 7, (R)—N-(6-(4-(4-fluorophenyl)-1-(1-(3,3,3-trifluoro-2-hydroxypropyl)piperidin-4-yl)-1H-imidazol-5-yl)imidazo[1,2-b]pyridazin-2-yl)isonicotinamide]",–,1.77
O=C(Nc1cn2nc(-c3c(-c4ccc(F)cc4)ncn3C3CCN(CC4CCOCC4)CC3)ccc2n1)c1ccnc(F)c1 [Compound 19],0.611,–
"CN1CCC(CN2CCC(n3cnc(-c4ccc(F)cc4)c3-c3ccc4nc(NC(=O)c5ccnc(F)c5)cn4n3)CC2)CC1 [Compound 25, 2-fluoro-N-(6-(4-(4-fluorophenyl)-1-(1-((1-methylpiperidin-4-yl)methyl)piperidin-4-yl)-1H-imidazol-5-yl)imidazo[1,2-6]pyridazin-2-yl)isonicotinamide]",0.532,–
"O=C(Nc1cn2nc(-c3c(-c4ccc(F)cc4)ncn3C3CCN(Cc4ncco4)CC3)ccc2n1)c1ccnc(F)c1 [Compound 29, 2-fluoro-N-(6-(4-(4-fluorophenyl)-1-(1-(oxazol-2-ylmethyl)piperidin-4-yl)-1H-imidazol-5-yl)imidazo[1,2-6]pyridazin-2-yl)isonicotinamide]",0.226,–
"O=C(Nc1cn2nc(-c3c(-c4ccc(F)cc4)ncn3C3CCN(Cc4ccc(O)nc4)CC3)ccc2n1)c1ccnc(F)c1 [Compound 30, 2-fluoro-N-(6-(4-(4-fluorophenyl)-1-(1-((6-hydroxypyridin-3-yl)methyl)piperidin-4-yl)-1H-imidazol-5-yl)imidazo[1,2-b]pyridazin-2-yl)isonicotinamide]",–,2
"O=C(Nc1cn2nc(-c3c(-c4ccc(F)cc4)ncn3C3CCN(C(=O)c4cocn4)CC3)ccc2n1)c1ccnc(F)c1 [Compound 43, 2-fluoro-N-(6-(4-(4-fluorophenyl)-1-(1-(oxazole-4-carbonyl)piperidin-4-yl)-1H-imidazol-5-yl)imidazo[1,2-6]pyridazin-2-yl)isonicotinamide]",–,0.952
"Cc1nocc1C(=O)N1CCC(n2cnc(-c3ccc(F)cc3)c2-c2ccc3nc(NC(=O)c4ccnc(F)c4)cn3n2)CC1 [Compound 63, 2-fluoro-N-(6-(4-(4-fluorophenyl)-1-(1-(3-methylisoxazole-4-carbonyl)piperidm-4-yl)-1H-imidazol-5-yl)imidazo[1,2-6]pyridazin-2-yl)isonicotinamide]",–,0.391
"O=C(Nc1cn2nc(-c3c(-c4ccc(F)cc4)ncn3C3CCN(C(=O)C4CC(F)(F)C4)CC3)ccc2n1)c1ccnc(F)c1 [Compound 67, N-(6-(1-(1-(3,3-difluorocyclobutanecarbonyl)piperidin-4-yl)-4-(4-fluorophenyl)-1H-imidazol-5-yl)imidazo[1,2-b]pyridazin-2-yl)-2-fluoroisonicotinamide]",0.116,–
"O=C(Nc1cn2nc(-c3c(-c4ccc(F)cc4)ncn3C3CCN(C(=O)OCCC(F)(F)F)CC3)ccc2n1)c1ccnc(F)c1 [Compound 83, 3,3,3-trifluoropropyl 4-(5-(2-(2-fluoroisonicotinamido)imidazo[1,2-b]pyridazin-6-yl)-4-(4-fluorophenyl)-1H-imidazol-1-yl)piperidine-1-carboxylate]",–,0.461
"O=C(Nc1cn2nc(-c3c(-c4ccc(F)cc4)ncn3C3CCN(C(=O)CC(F)(F)F)CC3)ccc2n1)c1cc(F)nc(F)c1 [Compound 94, 2,6-difluoro-N-(6-(4-(4-fluorophenyl)-1-(1-(3,3,3-trifluoropropanoyl)piperidin-4-yl)-1H-imidazol-5-yl)imidazo[1,2-b]pyridazin-2-yl)isonicotinamide]",–,1.27
"Cc1nc(-c2cccnc2)sc1C(=O)Nc1cn2nc(-c3c(-c4ccc(F)cc4)ncn3C3CCNCC3)ccc2n1 [Compound 95, N-(6-(4-(4-fluorophenyl)-1-(piperidin-4-yl)-1H-imidazol-5-yl)imidazo[1,2-b]pyridazin-2-yl)-4-methyl-2-(pyridin-3-yl)thiazole-5-carboxamide]",–,0.17
Cc1nc(-c2cccnc2)sc1C(=O)Nc1cn2nc(-c3c(-c4ccc(F)cc4)ncn3C3CCN(C)CC3)ccc2n1 [Compound 96],–,0.966
"Cc1nc(-c2ccncc2)sc1C(=O)Nc1cn2nc(-c3c(-c4ccc(F)cc4)ncn3C3CCN(CCO)CC3)ccc2n1 [Compound 105, N-(6-(4-(4-fluorophenyl)-1-(1-(2-hydroxyethyl)piperidin-4-yl)-1H-imidazol-5-yl)imidazo[1,2-b]pyridazin-2-yl)-4-methyl-2-(pyridin-4-yl) thiazole-5-carboxamide]",–,0.096
"O=C(Nc1cn2nc(-c3c(-c4ccc(F)cc4)ncn3C3CCNCC3)ccc2n1)c1ccnc2ccccc12 [Compound 109, N-(6-(4-(4-fluorophenyl)-1-(piperidin-4-yl)-1H-imidazol-5-yl)imidazo[1,2-b]pyridazin-2-yl)quinoline-4-carboxamide]",–,1.03
"O=C(Nc1cn2nc(-c3c(-c4ccc(F)cc4)ncn3C3CCN(CCO)CC3)ccc2n1)c1ccnc2ccccc12 [Compound 111, N-(6-(4-(4-fluorophenyl)-1-(1-(2-hydroxyethyl)piperidin-4-yl)-1H-imidazol-5-yl)imidazo[1,2-b]pyridazin-2-yl)quinoline-4-carboxamide]",–,0.564
"Cc1nc(-c2ccncc2)sc1C(=O)Nc1cn2nc(-c3c(-c4ccc(F)cc4)ncn3C3CN(CCO)C3)ccc2n1 [Compound 152, N-(6-(4-(4-fluorophenyl)-1-(1-(2-hydroxyethyl)azetidin-3-yl)-1H-imidazol-5-yl)imidazo[1,2-b]pyridazin-2-yl)-4-methyl-2-(pyridin-4-yl)thiazole-5-carboxamide]",–,3.07
"O=C(Nc1cn2nc(-c3c(-c4ccc(F)cc4)ncn3CC(O)CO)ccc2n1)c1ccnc(F)c1 (centres unmarked) [Compound 235, N-(6-(1-(2,3-dihydroxypropyl)-4-(4-fluorophenyl)-1H-imidazol-5-yl)imidazo[1,2-b]pyridazin-2-yl)-2-fluoroisonicotinamide, dimethyl-formamide]",–,2.82
"O=C(Nc1cn2nc(-c3c(-c4ccc(F)cc4)ncn3C3COC3)ccc2n1)c1ccnc(F)c1 [Compound 239, 2-fluoro-N-(6-(4-(4-fluorophenyl)-1-(oxetan-3-yl)-1H-imidazol-5-yl)imidazo[1,2-b]pyridazin-2-yl)iso-nicotinamide]",–,5.18
"CC(C)(C)OCCn1cnc(-c2ccc(F)cc2)c1-c1ccc2nc(NC(=O)c3ccnc(F)c3)cn2n1 [Compound 260, N-(6-(1-(2-tert-butoxyethyl)-4-(4-fluorophenyl)-1H-imidazol-5-yl)imidazo[1,2-b]pyridazin-2-yl)-2-fluoroisonicotinamide]",–,5.53
"Cc1nc(-c2ccc(F)cc2)c(-c2ccc3nc(NC(=O)c4ccncc4)cn3n2)n1C [Compound 301, N-(6-(4-(4-Fluorophenyl)-1,2-dimethyl-1H-imidazol-5-yl)imidazo[1,2-b]pyridazin-2-yl)isonicotinamide]",–,5.29
"Cc1nc(-c2ccc(F)cc2)c(-c2ccc3nc(NC(=O)c4ccnc(N)c4)cn3n2)n1C [Compound 323, 2-amino-N-(6-(4-(4-fluoro-phenyl)-1,2-dimethyl-1H-imidazol-5-yl)imidazo[1,2-b]pyridazin-2-yl)isonicotin-amide]",–,2.68
"Cc1cc(C(=O)Nc2cn3nc(-c4c(-c5ccc(F)cc5)nc(C)n4C)ccc3n2)[nH]n1 [Compound 349, N-(6-(4-(4-fluorophenyl)-1,2-dimethyl-1H-imidazol-5-yl)imidazo[1,2-b]pyridazin-2-yl)-5-methyl-1H-pyrazole-3-carboxamide]",–,6.89
"Cc1nc(-c2ccc(F)cc2)c(-c2ccc3nc(NC(=O)c4cncnc4)cn3n2)n1C [Compound 350, N-(6-(4-(4-fluorophenyl)-1,2-dimethyl-1H-imidazol-5-yl)imidazo[1,2-b]pyridazin-2-yl)-5-pyrimidinecarboxamide]",–,2.32
"Cc1nnsc1C(=O)Nc1cn2nc(-c3c(-c4ccc(F)cc4)nc(C)n3C)ccc2n1 [Compound 351, N-(6-(4-(4-fluorophenyl)-1,2-dimethyl-1H-imidazol-5-yl)imidazo[1,2-b]pyridazin-2-yl)-4-methyl-1,2,3-thiadiazole-5-carboxamide]",–,2.01
"Cc1nc(-c2ccc(F)cc2)c(-c2ccc3nc(NC(=O)c4cncn4C)cn3n2)n1C [Compound 360, N-(6-(4-(4-fluorophenyl)-1,2-dimethyl-1H-imidazol-5-yl)imidazo[1,2-b]pyridazin-2-yl)-1-methyl-1H-imidazole-5-carboxamide]",–,5.38
"Cc1nc(-c2ccc(F)cc2)c(-c2ccc3nc(NC(=O)c4nc[nH]n4)cn3n2)n1C [Compound 368, N-(6-(4-(4-fluorophenyl)-1,2-dimethyl-1H-imidazol-5-yl)imidazo[1,2-b]pyridazin-2-yl)-1H-1,2,4-triazole-3-carboxamide]",–,48.4
"Cc1nc(-c2ccc(F)cc2)c(-c2ccc3nc(NC(=O)c4ccno4)cn3n2)n1C [Compound 387, N-(6-(4-(4-fluorophenyl)-1,2-dimethyl-1H-imidazol-5-yl)imidazo[1,2-b]pyridazin-2-yl)isoxazole-5-carboxamide]",–,11.9
"Cc1cc(C(=O)Nc2cn3nc(-c4c(-c5ccc(F)cc5)nc(C)n4C)ccc3n2)n[nH]1 [Compound 401, N-(6-(4-(4-fluorophenyl)-1,2-dimethyl-1H-imidazol-5-yl)imidazo[1,2-b]pyridazin-2-yl)-5-methyl-1H-pyrazole-3-carboxamide]",–,34.2
